PubChem BioAssay (NCI)
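Test compounds were applied to cells in 96-well plates for 48 hours at 5 doses. TGI marks complete inhibition of growth.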

How the values were obtained:
Assay in all cases: growth of human tumour cells (NCI), 48 h
[1] = test system: A549 NSCLC
[2] = test system: ACHN renal
[3] = test system: CAKI-1 renal
[4] = test system: CCRF-CEM leukemia
[5] = test system: COLO 205 colon
[6] = test system: DMS 114 small cell lung
[7] = test system: EKVX NSCLC
[8] = test system: HCC-2998 colon
[9] = test system: HCT-116 colon
[10] = test system: HL-60(TB) leukemia
[11] = test system: HOP-62 NSCLC
[12] = test system: HOP-92 NSCLC
[13] = test system: HT29 colon
[14] = test system: IGROV1 ovarian
[15] = test system: KM12 colon
[16] = test system: KM20L2 colon
[17] = test system: LXFL 529 NSCLC
[18] = test system: M14 melanoma
[19] = test system: M19-MEL melanoma
[20] = test system: MOLT-4 leukemia
[21] = test system: NCI-H226 lung
[22] = test system: NCI-H23 lung
[23] = test system: NCI-H460 lung
[24] = test system: OVCAR-3 ovarian
[25] = test system: OVCAR-8 ovarian
[26] = test system: RPMI-8226 leukemia
[27] = test system: RXF 393 renal
[28] = test system: SF-268 CNS
[29] = test system: SF-295 CNS
[30] = test system: SF-539 CNS
[31] = test system: SK-MEL-2 melanoma
[32] = test system: SK-MEL-28 melanoma
[33] = test system: SK-MEL-5 melanoma
[34] = test system: SNB-19 CNS
[35] = test system: SNB-75 CNS
[36] = test system: SW-620 colon
[37] = test system: TK-10 renal
[38] = test system: UACC-257 melanoma
[39] = test system: UACC-62 melanoma
[40] = test system: UO-31 renal
[41] = test system: 786-0 renal
[42] = test system: A498 renal
[43] = test system: DLD-1 colon
[44] = test system: HCT-15 colon
[45] = test system: K-562 leukemia
[46] = test system: LOX IMVI melanoma
[47] = test system: MALME-3M melanoma
[48] = test system: NCI-H522 lung
[49] = test system: OVCAR-5 ovarian
[50] = test system: SK-OV-3 ovarian
[51] = test system: SN12C renal
[52] = test system: SNB-78 CNS
[53] = test system: SR leukemia
[54] = test system: U251 CNS
[55] = test system: DMS 273 small cell lung
[56] = test system: XF 498 CNS
[57] = test system: HOP-18 NSCLC
[58] = test system: OVCAR-4 ovarian

CN=c1ssc(=S)n1C(C)C
TGI [1]: > 100 µM | TGI [2]: 95.5 µM | TGI [3]: 88.2 µM | TGI [4]: 11.8 µM | TGI [5]: 39.4 µM | TGI [6]: 20.3 µM | TGI [7]: > 100 µM | TGI [8]: 27.8 µM | TGI [9]: > 100 µM | TGI [10]: 14.7 µM | TGI [11]: 43.7 µM | TGI [12]: 67.1 µM | TGI [13]: 16.2 µM | TGI [14]: 46.4 µM | TGI [15]: > 100 µM | TGI [16]: 41.4 µM | TGI [17]: 19.9 µM | TGI [18]: 79 µM | TGI [19]: 28.6 µM | TGI [20]: 51.7 µM | TGI [21]: > 100 µM | TGI [22]: 80.7 µM | TGI [23]: > 100 µM | TGI [24]: 35 µM | TGI [25]: > 100 µM | TGI [26]: 60.3 µM | TGI [27]: 22.4 µM | TGI [28]: > 100 µM | TGI [29]: > 100 µM | TGI [30]: 86.6 µM | TGI [31]: > 100 µM | TGI [32]: 9.24 µM | TGI [33]: > 100 µM | TGI [34]: > 100 µM | TGI [35]: 52.3 µM | TGI [36]: 20.6 µM | TGI [37]: > 100 µM | TGI [38]: 53.5 µM | TGI [39]: 31.1 µM | TGI [40]: > 100 µM

CN/N=C(\C(=O)Nc1ccc(C(F)(F)F)cc1[N+](=O)[O-])C(c1cnc2ccc([N+](=O)[O-])cc2n1)[N+](=O)[O-] (centres undefined)
TGI [41]: > 100 µM | TGI [42]: > 100 µM | TGI [1]: > 100 µM | TGI [2]: > 100 µM | TGI [3]: > 100 µM | TGI [4]: > 100 µM | TGI [5]: > 100 µM | TGI [43]: > 100 µM | TGI [6]: > 100 µM | TGI [7]: 65.9 µM | TGI [8]: 84.8 µM | TGI [9]: > 100 µM | TGI [44]: > 100 µM | TGI [11]: > 100 µM | TGI [12]: > 100 µM | TGI [13]: > 100 µM | TGI [14]: > 100 µM | TGI [45]: > 100 µM | TGI [15]: > 100 µM | TGI [46]: > 100 µM | TGI [17]: > 100 µM | TGI [18]: > 100 µM | TGI [19]: > 100 µM | TGI [47]: > 100 µM | TGI [20]: > 100 µM | TGI [21]: 78.5 µM | TGI [22]: > 100 µM | TGI [23]: > 100 µM | TGI [48]: 66.3 µM | TGI [24]: > 100 µM | TGI [49]: 79.5 µM | TGI [25]: > 100 µM | TGI [26]: > 100 µM | TGI [27]: > 100 µM | TGI [28]: > 100 µM | TGI [29]: > 100 µM | TGI [30]: > 100 µM | TGI [31]: > 100 µM | TGI [32]: > 100 µM | TGI [33]: > 100 µM | TGI [50]: > 100 µM | TGI [51]: > 100 µM | TGI [34]: > 100 µM | TGI [52]: > 100 µM | TGI [53]: > 100 µM | TGI [36]: > 100 µM | TGI [54]: > 100 µM | TGI [38]: > 100 µM | TGI [40]: > 100 µM

COC(=O)N/N=C(\C)CC(=O)Nc1cccc([N+](=O)[O-])c1
TGI [41]: > 100 µM | TGI [1]: > 100 µM | TGI [4]: > 100 µM | TGI [5]: > 100 µM | TGI [43]: > 100 µM | TGI [6]: > 100 µM | TGI [55]: > 100 µM | TGI [7]: > 100 µM | TGI [8]: > 100 µM | TGI [9]: > 100 µM | TGI [10]: > 100 µM | TGI [11]: > 100 µM | TGI [12]: > 100 µM | TGI [13]: > 100 µM | TGI [14]: > 100 µM | TGI [45]: > 100 µM | TGI [15]: > 100 µM | TGI [16]: > 100 µM | TGI [46]: > 100 µM | TGI [17]: > 100 µM | TGI [18]: > 100 µM | TGI [19]: > 100 µM | TGI [47]: > 100 µM | TGI [20]: > 100 µM | TGI [21]: > 100 µM | TGI [22]: > 100 µM | TGI [23]: > 100 µM | TGI [48]: > 100 µM | TGI [24]: > 100 µM | TGI [49]: > 100 µM | TGI [25]: > 100 µM | TGI [26]: > 100 µM | TGI [27]: > 100 µM | TGI [28]: > 100 µM | TGI [29]: > 100 µM | TGI [30]: > 100 µM | TGI [31]: > 100 µM | TGI [32]: > 100 µM | TGI [33]: > 100 µM | TGI [50]: > 100 µM | TGI [35]: > 100 µM | TGI [52]: > 100 µM | TGI [36]: > 100 µM | TGI [37]: > 100 µM | TGI [54]: > 100 µM | TGI [38]: > 100 µM | TGI [39]: > 100 µM | TGI [40]: > 100 µM | TGI [56]: > 100 µM

CSc1ccc2c(cc1=O)C(NC(=O)c1ccccc1)CCc1cc(O)c(O)c(O)c1-2 (centres undefined)
TGI [41]: > 100 µM | TGI [42]: 56.9 µM | TGI [1]: > 100 µM | TGI [2]: > 100 µM | TGI [3]: 88 µM | TGI [4]: > 100 µM | TGI [5]: 73.4 µM | TGI [43]: 32.7 µM | TGI [6]: 79.7 µM | TGI [55]: > 100 µM | TGI [7]: > 100 µM | TGI [8]: 36.2 µM | TGI [9]: 36.4 µM | TGI [44]: 35.3 µM | TGI [10]: 38.2 µM | TGI [57]: > 100 µM | TGI [11]: 57.8 µM | TGI [12]: 38.5 µM | TGI [13]: > 100 µM | TGI [14]: 66.1 µM | TGI [45]: 37.2 µM | TGI [15]: 27.5 µM | TGI [16]: 3.62 µM | TGI [46]: 30 µM | TGI [17]: 60.8 µM | TGI [18]: 35.7 µM | TGI [19]: 65 µM | TGI [47]: > 100 µM | TGI [20]: 54.2 µM | TGI [21]: 45.7 µM | TGI [22]: 24.7 µM | TGI [23]: 40.3 µM | TGI [48]: 35.6 µM | TGI [24]: 5.91 µM | TGI [58]: 33.2 µM | TGI [49]: > 100 µM | TGI [25]: > 100 µM | TGI [26]: 62.6 µM | TGI [27]: > 100 µM | TGI [28]: > 100 µM | TGI [29]: > 100 µM | TGI [30]: 10.6 µM | TGI [31]: > 100 µM | TGI [32]: > 100 µM | TGI [33]: 12.7 µM | TGI [50]: > 100 µM | TGI [51]: 44.7 µM | TGI [34]: 27.1 µM | TGI [35]: 8.42 µM | TGI [52]: > 100 µM | TGI [36]: 29.1 µM | TGI [37]: > 100 µM | TGI [54]: 26.2 µM | TGI [38]: > 100 µM | TGI [39]: 25.7 µM | TGI [40]: > 100 µM
